The subject of data set [1] is S. epidermidis 433. The experiment in a line: MIC, hospital MRSE strain. Type of data set: cell-based, Staphylococcus epidermidis. As to conditions: hospital MRSE S. epidermidis 433. As for the experimental part:
(§1) The antimicrobial activity of the compounds was tested on Gram-positive bacteria (Staphylococcus aureus NCTC 4163, Staphylococcus aureus ATCC 25923, Staphylococcus aureus ATCC 6538, Staphylococcus aureus ATCC 29213, Staphylococcus epidermidis ATCC 12228, Staphylococcus epidermidis ATCC 35984), Gram-negative rods (Escherichia coli ATCC 10538, Escherichia coli ATCC 25922, Pseudomonas aeruginosa ATCC 15442, Pseudomonas aeruginosa ATCC 27863) and yeasts (Candida albicans ATCC 10231, Candida albicans ATCC 90028, Candida parapsilosis ATCC 22019). Hospital methicillin-resistant strains of Staphylococcus aureus and Staphylococcus epidermidis were obtained from the collection of the Department of Pharmaceutical Microbiology, Medical University of Warsaw, Poland.
(§2) Antifungal activities were assessed using Mueller–Hinton agar + 2% glucose and 0.5 µg/mL methylene blue dye medium. Sterile filter paper discs (9 mm diameter, Whatman Number 3 chromatography paper) were dripped with tested compound solutions (in dimethylsulfoxide, DMSO) to load 400 μg of a given compound per disc. Dry discs were placed on the surface of appropriate agar medium. The results (diameter of the growth inhibition zone) were read after 18 h of incubation at 35 °C. Minimal inhibitory concentration (MIC) was tested by the twofold serial microdilution method (in 96-well microtiter plates) using Mueller–Hinton broth medium (Beckton Dickinson) for bacteria or RPMI-1640 medium for Candida species, according to CLSI guidelines. The stock solution of tested agent was prepared in DMSO and diluted in sterile water. […] The final inoculum of all studied microorganisms was 10^5 CFU/ mL^−1 (colony forming units per ml). Minimal inhibitory concentrations (the lowest concentration of a tested agent that prevents visible growth of a microorganism) were read after 18 h (bacteria) or 24 h (yeasts) of incubation at 35 °C.

Data set [2] relates to S. epidermidis 437. The experiment in a line: MIC, hospital MRSE strain. As to conditions: hospital MRSE S. epidermidis 437. Type of data set: cell-based, Staphylococcus epidermidis. Here is the method: as §1, §2
The test system of data set [3] is S. epidermidis 513. The experiment in a line: MIC, hospital MRSE strain. Type of data set: cell-based, Staphylococcus epidermidis. As to conditions: hospital MRSE S. epidermidis 513. Here is the method: as §1, §2
Data set [4] relates to S. epidermidis 511. Nature of the data set: MIC, hospital MRSE strain. The data set is classed as cell-based, Staphylococcus epidermidis. The following applies: hospital MRSE S. epidermidis 511. Here is the method:
as §1, §2

In data set [5] the test system is S. epidermidis 469. Nature of the data set: MIC, hospital MRSE strain. The data set is classed as cell-based, Staphylococcus epidermidis. As to conditions: hospital MRSE S. epidermidis 469. Here is the method:
as §1, §2

The test system of data set [6] is S. epidermidis 510. The experiment in a line: MIC, hospital MRSE strain. The data set is classed as cell-based, Staphylococcus epidermidis. The following applies: hospital MRSE S. epidermidis 510. Here is the method: as §1, §2
The subject of data set [7] is S. epidermidis 423. Nature of the data set: MIC, hospital MRSE strain. The following applies: hospital MRSE S. epidermidis 423. Type of data set: cell-based, Staphylococcus epidermidis. Here is the method: as §1, §2
The test system of data set [8] is S. epidermidis 435. Nature of the data set: MIC, hospital MRSE strain. As to conditions: hospital MRSE S. epidermidis 435. The data set is classed as cell-based, Staphylococcus epidermidis. As for the experimental part: as §1, §2
Data set [9] relates to S. epidermidis 424. Nature of the data set: MIC, hospital MRSE strain. Type of data set: cell-based, Staphylococcus epidermidis. The following applies: hospital MRSE S. epidermidis 424. Here is the method: as §1, §2
For data set [10], the system named is S. epidermidis 432. Nature of the data set: MIC, hospital MRSE strain. The data set is classed as cell-based, Staphylococcus epidermidis. The following applies: hospital MRSE S. epidermidis 432. Here is the method:
as §1, §2

Data set [11] has as its system S. epidermidis 471. Nature of the data set: MIC, hospital MRSE strain. The data set is classed as cell-based, Staphylococcus epidermidis. The following applies: hospital MRSE S. epidermidis 471. Here is the method: as §1, §2
Data set [12] deals with S. epidermidis 420. Nature of the data set: MIC, hospital MRSE strain. Type of data set: cell-based, Staphylococcus epidermidis. As to conditions: hospital MRSE S. epidermidis 420. Here is the method:
as §1, §2

Data set [13] concerns S. epidermidis 438. Nature of the data set: MIC, hospital MRSE strain. Type of data set: cell-based, Staphylococcus epidermidis. As to conditions: hospital MRSE S. epidermidis 438. As for the experimental part:
as §1, §2

In data set [14] the test system is S. epidermidis 436. Nature of the data set: MIC, hospital MRSE strain. As to conditions: hospital MRSE S. epidermidis 436. The data set is classed as cell-based, Staphylococcus epidermidis. As for the experimental part:
as §1, §2

Data set [15] relates to S. epidermidis 431. The experiment in a line: MIC, hospital MRSE strain. The data set is classed as cell-based, Staphylococcus epidermidis. As to conditions: hospital MRSE S. epidermidis 431. Here is the method: as §1, §2
In data set [16] the test system is S. epidermidis 515. Nature of the data set: MIC, hospital MRSE strain. The data set is classed as cell-based, Staphylococcus epidermidis. As to conditions: hospital MRSE S. epidermidis 515. Here is the method:
as §1, §2

The subject of data set [17] is hospital S. epidermidis (MRSE). The experiment in a line: MIC, hospital S. epidermidis. Type of data set: cell-based, Staphylococcus epidermidis. As to conditions: S. epidermidis 424, 471, 511, 515 and 431–433 isolates. As for the experimental part: as §1, §2
The test system of data set [18] is SW480 (human primary colon cancer). The experiment in a line: MTT cytotoxicity assay, SW480. Type of data set: cell-based. The following applies: SW480, 72 h. As for the experimental part:
The human primary (SW480), metastatic (SW620) colon cancer, metastatic prostate cancer (PC3) and human immortal keratinocyte (HaCaT) cell lines were purchased from the American Type Culture Collection (ATCC, Rockville, USA). The cells were cultured in medium according to protocols (MEM for SW480 and SW620, RPMI 1640 for PC3 and DMEM for HaCaT cells) supplemented with 10% fetal bovine serum (FBS), penicillin (100 U/mL) and streptomycin (100 μg/mL) and cultured in 37 °C/ 5% CO2 humidified incubator. The cells were cultured until appropriate confluence was achieved (80–90%). Next, they were harvested by treatment with 0.25% trypsin (Gibco Life Technologies, USA) and used for studies.
Cells without studied compounds in medium were used as a control.
The cell viability was assessed by determination of MTT salt (3-(4,5-dimethylthiazol-2-yl)-2,5-diphenyltetrazolium bromide) conversion by mitochondrial dehydrogenase. MTT assay was performed as previously described. Experiments were repeated three times. Cell viability was presented as a percentage of MTT reduction in the treated cells versus the control cells. Number of viable cells cultured without studied compounds was assumed to be 100%. Decreased relative MTT level means decreased cell viability. Thiourea complexes with the highest cytotoxic potential assessed by MTT determination (with the lowest IC50) were chosen for subsequent assessments of cytotoxicity mechanisms.
In general terms: Formazan colour is commonly taken as a measure of viable cells.

Data set [19] deals with Bacillus subtilis M45 (rec−). Nature of the data set: Bacillus subtilis rec-assay, M45. The following applies: B. subtilis M45; 256 µg per disc (NOQ 2 µg per disc). Type of data set: cell-based. As for the experimental part:
DNA-damaging activity of compounds was tested by rec-assay using two genetically modified Bacillus subtilis strains: M45 (rec^−) and H17 (rec^+). Tested compounds were dissolved in DMSO, and 10 µL of each solution was dripped onto sterile cotton discs (Rotilabo) to load 256 µg of a given compound per 9 mm disc. Discs were placed on the surface nutrient agar plates (Difco), inoculated with 100 µL of bacterial overnight culture and incubated […] at 35 °C. After incubation, the growth inhibition zones were measured. […] Results of the genotoxicity test were estimated after 18 h of incubation at 35 °C by comparing the diameter of the inhibition zone on the B. subtilis M45 (rec^−) strain with that on the B. subtilis H17 (rec^+) strain.

This note sets out measurements from publication PMC8584173, “The Cytotoxic Effect of Copper (II) Complexes with Halogenated 1,3-Disubstituted Arylthioureas on Cancer and Bacterial Cells” (International Journal of Molecular Sciences, 2021).

By MIC is commonly meant the lowest concentration found to suppress growth. For orientation: IC50 means the concentration needed to halve the response being measured. `O=[N+]([O-])c1cc([N+]2=C(Nc3cccc(Br)c3)[S][Cu-2]23[S]C(Nc2cccc(Br)c2)=[N+]3c2ccc(Cl)c([N+](=O)[O-])c2)ccc1Cl` [Compound 2, Copper (II) complex with 1-(3-bromophenyl)-3-(4-chloro-3-nitrophenyl)thiourea]: the MIC in [1], in data set [2], in data set [3], in data set [4], in data set [5] and in data set [6] was 8 µg/mL in each case. Also, the MIC in data set [7], in data set [8], in [9], in data set [10], in data set [11] and in data set [12] was 8 µg/mL throughout. The MIC in data set [13], in data set [14], in data set [15] and in data set [16] was 8 µg/mL throughout. Besides, the “times more effective than the reference chemotherapeutic (ciprofloxacin)” value in data set [17] is on record as 2–16 times. The compound further gave an IC50 in [18] of 24.3 ± 2.6 µM. Further, the inhibition zone diameter in data set [19] came to 19 mm.

As for `O=[N+]([O-])c1cc([N+]2=C(Nc3ccc(I)cc3)[S][Cu-2]23[S]C(Nc2ccc(I)cc2)=[N+]3c2ccc(Cl)c([N+](=O)[O-])c2)ccc1Cl` [Compound 8, Copper (II) complex with 1-(4-iodophenyl)-3-(4-chloro-3-nitrophenyl)thiourea], the MIC in [1] is 4 µg/mL; in [2], 8 µg/mL; in [3], 8 µg/mL; in [4] it was 8 µg/mL; in data set [5], 8 µg/mL; in data set [6], 8 µg/mL. Further, the MIC in data set [7], in data set [8], in data set [9], in data set [10], in data set [11] and in data set [12] was 8 µg/mL each time. Also, the MIC in data set [13], in [14], in data set [15] and in data set [16] was 8 µg/mL throughout. Further, the “times more effective than the reference chemotherapeutic (ciprofloxacin)” value in data set [17] is recorded as 2–16 times. Besides, in [18], the IC50 stood at 3.9 ± 0.8 µM. The compound also showed an inhibition zone diameter in data set [19] of 14 mm.

On to `O=[N+]([O-])c1cc([N+]2=C(Nc3ccccc3F)[S][Cu-2]23[S]C(Nc2ccccc2F)=[N+]3c2ccc(Cl)c([N+](=O)[O-])c2)ccc1Cl` [Compound 7, Copper (II) complex with 1-(2-fluorophenyl)-3-(4-chloro-3-nitrophenyl)thiourea], for which the MIC in [1], in data set [2], in data set [3], in data set [4], in [5] and in [6] was 8 µg/mL in each case. Further, the MIC in [7], in [8], in data set [9], in data set [10], in data set [11] and in data set [12] was 8 µg/mL throughout. The minimal inhibitory concentration (MIC) in [13], in data set [14], in data set [15] and in data set [16] was 8 µg/mL throughout. The “times more effective than the reference chemotherapeutic (ciprofloxacin)” value in data set [17] was 2–16 times. Also, half-maximal inhibition in [18] (IC50) was put at 15.5 ± 2.6 µM. The compound also showed an inhibition zone diameter in [19] of 18 mm.

Take `O=[N+]([O-])c1cc(NC2=[N+](c3ccc(Cl)c([N+](=O)[O-])c3)[Cu-2]3([S]2)[S]C(Nc2ccc(Cl)c([N+](=O)[O-])c2)=[N+]3c2ccc(Cl)c([N+](=O)[O-])c2)ccc1Cl` [Compound 6, Copper (II) complex with 1,3-bis(4-chloro-3-nitrophenyl)thiourea]: the MIC in data set [1] stood at 64 µg/mL; in data set [2] it was 128 µg/mL; in [3], 64 µg/mL; in data set [4] it was 64 µg/mL; in [5], 64 µg/mL; in data set [6], 64 µg/mL. In addition, the MIC in [7] is 64 µg/mL; in data set [8], 128 µg/mL; in data set [9], 64 µg/mL; in [10] it was 64 µg/mL; in data set [11], 64 µg/mL; in [12], 64 µg/mL. In addition, the MIC in data set [13] is recorded as 128 µg/mL; in data set [14] it was 128 µg/mL; in data set [15], 64 µg/mL; in [16], 64 µg/mL. The compound further came in with an IC50 in [18] of 26.8 ± 2.3 µM. The inhibition zone diameter in [19] came to 15 mm.

As to `O=[N+]([O-])c1cc([N+]2=C(Nc3ccc(Cl)c(Cl)c3)[S][Cu-2]23[S]C(Nc2ccc(Cl)c(Cl)c2)=[N+]3c2ccc(Cl)c([N+](=O)[O-])c2)ccc1Cl` [Compound 5, Copper (II) complex with 1-(4-chloro-3-nitrophenyl)-3-(3,4-dichlorophenyl)thiourea], the MIC in data set [1] was 32 µg/mL; in [2], 32 µg/mL; in [3] it was 16 µg/mL; in data set [4], 32 µg/mL; in data set [5], 32 µg/mL; in data set [6], 16 µg/mL. In addition, the MIC in [7], in data set [8], in data set [9], in data set [10], in data set [11] and in data set [12] was 32 µg/mL each time. The MIC stood at 32 µg/mL in data set [13], 32 µg/mL in data set [14], 16 µg/mL in data set [15] and 32 µg/mL in data set [16]. In data set [18], half-maximal inhibition (IC50) required 20.6 ± 2.1 µM. In data set [19], the inhibition zone diameter came to 18 mm.
